Results as given in ChEMBL document CHEMBL1147955, “Novel pyridyl-fused 3-amino chroman derivatives with dual action at serotonin transporter and 5-HT1A receptor” (Bioorg Med Chem Lett, 2007).

Columns and labels:
[1] = target: T1, 5-hydroxytryptamine receptor 1A (Homo sapiens, UniProt P08908); experiment: Displacement of [3H]8-OH-DPAT from human 5HT1A receptor expressed in CHO cells; assay type: cell-based
T1 sequence (P08908 whole entry): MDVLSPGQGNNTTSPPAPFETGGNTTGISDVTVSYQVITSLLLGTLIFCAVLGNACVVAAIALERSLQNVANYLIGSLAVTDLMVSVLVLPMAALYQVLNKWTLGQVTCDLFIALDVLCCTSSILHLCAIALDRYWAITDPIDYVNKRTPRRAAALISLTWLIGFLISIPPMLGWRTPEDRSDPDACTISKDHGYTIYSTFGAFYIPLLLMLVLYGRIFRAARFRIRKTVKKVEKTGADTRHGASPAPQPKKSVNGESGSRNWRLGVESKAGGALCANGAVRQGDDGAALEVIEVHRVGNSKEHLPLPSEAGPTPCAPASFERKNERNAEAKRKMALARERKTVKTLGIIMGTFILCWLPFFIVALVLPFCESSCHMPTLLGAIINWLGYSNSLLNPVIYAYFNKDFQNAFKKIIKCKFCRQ

[2] = target: Sodium-dependent serotonin transporter (Rattus norvegicus, UniProt P31652); experiment: Displacement of [3H]paroxetine from 5HT reuptake site of rat cortical 5HTT
Sodium-dependent serotonin transporter, sequence (P31652 whole entry): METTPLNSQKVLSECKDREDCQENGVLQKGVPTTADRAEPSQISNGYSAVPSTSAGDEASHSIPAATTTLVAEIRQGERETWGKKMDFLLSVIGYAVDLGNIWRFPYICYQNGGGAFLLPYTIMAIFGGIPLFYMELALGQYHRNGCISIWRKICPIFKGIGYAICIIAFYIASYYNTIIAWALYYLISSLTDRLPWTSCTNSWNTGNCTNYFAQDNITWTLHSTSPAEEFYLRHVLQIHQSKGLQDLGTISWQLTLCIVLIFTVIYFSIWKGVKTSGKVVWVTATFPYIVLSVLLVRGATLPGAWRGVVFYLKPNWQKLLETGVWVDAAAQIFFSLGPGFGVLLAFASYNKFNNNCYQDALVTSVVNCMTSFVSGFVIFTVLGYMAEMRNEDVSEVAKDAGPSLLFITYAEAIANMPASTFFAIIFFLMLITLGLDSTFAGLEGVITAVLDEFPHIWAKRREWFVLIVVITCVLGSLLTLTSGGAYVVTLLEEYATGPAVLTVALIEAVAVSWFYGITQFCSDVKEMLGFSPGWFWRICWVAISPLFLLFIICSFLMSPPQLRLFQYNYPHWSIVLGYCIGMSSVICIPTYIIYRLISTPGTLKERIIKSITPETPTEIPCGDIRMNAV

[3] = target: T2, Adrenergic receptor alpha-1 (Rattus norvegicus, UniProt P15823+P23944+P43140); experiment: Displacement of [3H]prazosin from adrenergic alpha-1 receptor in rat cortical membranes at 1 uM; assay type: cell membranes, Membrane
T2 sequence (P15823 whole entry): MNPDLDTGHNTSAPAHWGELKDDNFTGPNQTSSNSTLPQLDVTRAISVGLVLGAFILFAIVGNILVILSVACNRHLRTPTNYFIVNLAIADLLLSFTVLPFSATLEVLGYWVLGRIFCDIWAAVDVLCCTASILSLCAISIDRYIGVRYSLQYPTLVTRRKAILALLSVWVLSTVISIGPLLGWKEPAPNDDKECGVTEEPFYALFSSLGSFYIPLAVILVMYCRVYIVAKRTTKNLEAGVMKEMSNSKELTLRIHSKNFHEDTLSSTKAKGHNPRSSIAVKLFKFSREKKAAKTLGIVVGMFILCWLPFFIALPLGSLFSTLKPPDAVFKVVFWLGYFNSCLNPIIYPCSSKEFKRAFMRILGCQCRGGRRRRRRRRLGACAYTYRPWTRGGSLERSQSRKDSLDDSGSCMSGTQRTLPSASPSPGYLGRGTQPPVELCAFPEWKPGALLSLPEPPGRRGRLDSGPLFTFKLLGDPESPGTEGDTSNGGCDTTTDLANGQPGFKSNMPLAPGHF
T2 sequence (P23944 whole entry): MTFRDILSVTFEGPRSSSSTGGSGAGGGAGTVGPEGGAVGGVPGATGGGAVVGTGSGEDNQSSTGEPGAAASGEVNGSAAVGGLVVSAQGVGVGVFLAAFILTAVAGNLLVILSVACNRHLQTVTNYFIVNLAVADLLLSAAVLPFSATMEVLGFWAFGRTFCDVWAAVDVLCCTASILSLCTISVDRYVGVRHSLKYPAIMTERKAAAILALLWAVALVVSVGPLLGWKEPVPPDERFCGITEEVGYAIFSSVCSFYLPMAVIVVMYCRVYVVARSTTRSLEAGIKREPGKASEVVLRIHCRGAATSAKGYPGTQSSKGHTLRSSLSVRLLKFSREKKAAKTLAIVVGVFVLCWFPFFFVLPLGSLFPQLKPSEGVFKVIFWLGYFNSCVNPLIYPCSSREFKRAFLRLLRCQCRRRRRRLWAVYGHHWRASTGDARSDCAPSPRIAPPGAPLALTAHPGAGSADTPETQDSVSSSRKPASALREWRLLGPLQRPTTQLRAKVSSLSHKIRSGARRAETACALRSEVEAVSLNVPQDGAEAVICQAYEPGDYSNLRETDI
T2 sequence (P43140 whole entry): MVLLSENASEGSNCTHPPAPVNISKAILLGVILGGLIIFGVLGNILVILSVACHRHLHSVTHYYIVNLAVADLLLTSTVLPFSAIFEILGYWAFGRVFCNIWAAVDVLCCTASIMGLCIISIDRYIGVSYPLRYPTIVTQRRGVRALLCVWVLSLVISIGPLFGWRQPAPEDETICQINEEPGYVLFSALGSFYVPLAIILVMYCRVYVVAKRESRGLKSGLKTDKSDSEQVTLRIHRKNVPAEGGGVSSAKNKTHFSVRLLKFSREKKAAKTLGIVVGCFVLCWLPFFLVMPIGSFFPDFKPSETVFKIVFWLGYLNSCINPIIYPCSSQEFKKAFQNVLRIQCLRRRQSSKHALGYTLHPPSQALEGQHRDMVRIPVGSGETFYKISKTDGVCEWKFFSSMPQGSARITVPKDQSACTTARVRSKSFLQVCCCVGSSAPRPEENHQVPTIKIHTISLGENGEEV

[4] = target: T1, 5-hydroxytryptamine receptor 1A; experiment: Displacement of [3H]8-OH-DPAT from human 5HT1A receptor expressed in CHO cells at 1 uM; assay type: cell-based
[5] = target: T2, Adrenergic receptor alpha-1; experiment: Displacement of [3H]prazosin from adrenergic alpha-1 receptor in rat cortical membranes; assay type: cell membranes, Membrane
[6] = target: T1, 5-hydroxytryptamine receptor 1A; experiment: Agonist activity at human 5HT1A receptor expressed in CHO membrane assessed as stimulation of [35S]GTP-gamma-S binding; assay type: functional, cell membranes
[7] = target: T3, 5-hydroxytryptamine receptor 1A (Homo sapiens) (UniProt P08908); experiment: Agonist activity at human 5HT1A receptor expressed in CHO membrane assessed as stimulation of [35S]GTPgammaS binding relative to 5HT; assay type: functional, cell membranes
T3 sequence (whole entry): T1 sequence (P08908 whole entry)

Row | SMILES | Ki [1] | Ki [2] | Ki [5] | further results
1 | CCCN(CCCc1c[nH]c2ccc(F)cc12)C1COc2ccc3ncccc3c2C1 (racemic) | 63.5 nM | 16.9 nM | – | % inhibition [3]: 18%
2 | CCCN(CCCc1c[nH]c2ccc(F)cc12)C1COc2c(ccc3ncccc23)C1 (racemic) | – | 12.4 nM | 1234.3 nM | % inhibition [4]: 46%
3 | Fc1ccc2[nH]cc(CCCCNC3COc4c(ccc5ncccc45)C3)c2c1 (racemic) | – | 1.5 nM | – | % inhibition [4]: 47%; % inhibition [3]: 33%
4 | Fc1ccc2[nH]cc(CCCNC3COc4ccc5ncccc5c4C3)c2c1 (racemic) | – | – | 324.2 nM | –
5 | CCCN(CCc1c[nH]c2ccc(F)cc12)C1COc2ccc3ncccc3c2C1 (racemic) | – | 62.8 nM | 711.2 nM | –
6 | CCCN(CCCCc1c[nH]c2ccc(F)cc12)C1COc2c(ccc3ncccc23)C1 (racemic) | – | – | – | % inhibition [4]: 21%; % inhibition [3]: 19%
7 | Fc1ccc2[nH]cc(CCCNC3COc4c(ccc5ncccc45)C3)c2c1 (racemic) | 105 nM | 2.6 nM | 489.5 nM | –
8 | COc1cccc2c1CC(NCCCc1c[nH]c3ccc(F)cc13)CO2 (racemic) | 70.4 nM | 9.2 nM | 772.5 nM | –
9 | Fc1ccc2[nH]cc(CCNC3COc4ccc5ncccc5c4C3)c2c1 (racemic) | – | 30.5 nM | 1078.7 nM | % inhibition [4]: 10%
10 | CCCN(CCCc1c[nH]c2ccc(F)cc12)C1COc2ccc3ncccc3c2C1 (single isomer, unassigned; (+)) [listing 1 of 2 here] | 58 nM | 19.8 nM | – | % inhibition [3]: 38%; EC50 [6]: 301 nM
11 | Fc1ccc2[nH]cc(CCCNC3COc4c(ccc5ncccc45)C3)c2c1 (single isomer, unassigned; (+)) [listing 1 of 2 here] | 392 nM | 3 nM | 623.7 nM | EC50 [6]: 332 nM
12 | CCCN(CCCc1c[nH]c2ccc(F)cc12)C1COc2ccc3ncccc3c2C1 (single isomer, unassigned; (+)) [listing 2 of 2 here] | – | – | – | Emax [7]: 100%
13 | Fc1ccc2[nH]cc(CCCNC3COc4c(ccc5ncccc45)C3)c2c1 (single isomer, unassigned; (+)) [listing 2 of 2 here] | – | – | – | Emax [7]: 75%
14 | Fc1ccc2[nH]cc(CCCNC3COc4ccc5ncccc5c4C3)c2c1 (single isomer, unassigned; (-)) [listing 1 of 2 here] | 314 nM | – | 221 nM | EC50 [6]: 116 nM
15 | Fc1ccc2[nH]cc(CCCNC3COc4c(ccc5ncccc45)C3)c2c1 (single isomer, unassigned; (-)) [listing 1 of 2 here] | 67.8 nM | 1.2 nM | 387.7 nM | EC50 [6]: 172 nM
16 | Fc1ccc2[nH]cc(CCCNC3COc4c(ccc5ncccc45)C3)c2c1 (single isomer, unassigned; (-)) [listing 2 of 2 here] | – | – | – | Emax [7]: 100%
17 | Fc1ccc2[nH]cc(CCCNC3COc4ccc5ncccc5c4C3)c2c1 (single isomer, unassigned; (-)) [listing 2 of 2 here] | – | – | – | Emax [7]: 86%
18 | Fc1ccc2[nH]cc(CCCNC3COc4ccc5ncccc5c4C3)c2c1 (stereo in doubt; (+)-5) [listing 1 of 2 here] | 23.9 nM | – | 590.8 nM | –
19 | Fc1ccc2[nH]cc(CCCNC3COc4ccc5ncccc5c4C3)c2c1 (stereo in doubt; (+)-5) [listing 2 of 2 here] | – | – | – | Emax [7]: 100%
20 | CCCN(CCCc1c[nH]c2ccc(F)cc12)C1COc2ccc3ncccc3c2C1 (stereo in doubt; (-)-6) [listing 1 of 2 here] | – | 8.8 nM | – | % inhibition [3]: 31%
21 | CCCN(CCCc1c[nH]c2ccc(F)cc12)C1COc2ccc3ncccc3c2C1 (stereo in doubt; (-)-6) [listing 2 of 2 here] | – | – | – | Emax [7]: 55%
